Data reported in patent US20080003215A1, “Use of pre-dissolved pristinamycin-type and polyether ionophore type antimicrobial agents in the production of ethanol” (priority 2006, published 2008).
Values belong to the compound of their own block, whether it stands above or below them.

Experiments:
Yeast #2 = assay: Solvent compatibility with yeast corn mash fermentation, Yeast #2
Description: (§1) Dialkylsulfoxides and alkyl pyrrolidones, where the alkyl groups are independently C1 to C4, are particularly preferred. Dimethylsulfoxide (DMSO) and N-Methyl-2-Pyrrolidone (M-Pyrol or NMP) compatibility with yeast corn mash fermentations were evaluated with two yeasts (Yeast#1 and Yeast#2) commercially used in the fuel ethanol industry. Concentrations of 0 to 1200 ppm of either solvent were added at the beginning of dry-milled corn-mash fermentations along with either yeast.
(§2) Sterile saccharified 26% wt. %/v corn mash was prepared using substantially the same procedure described in Example 2. To each of 6 pre-sterilized Celstir™ fermentors (Wheaton Instruments, Millville, N.J.), 500 g sterile mash was aseptically added. The fermentors were temperature controlled to 32° C. using circulating water baths (Haake D8;G, Berlin, Germany) to pump water through the jackets of the Celstir fermentors. Magnetic stirrers (IKA-Lavortechnik, Staufen, Germany) were used to mix the fermentors at approximately 200 RPM. […] Then, to each fermentator was added 1) 1 ml of 0.2 μm filter-sterilized Urea stock solution (8 mM urea in fermentors); 2) 1 ml filter sterilized aqueous DMSO (Gaylord Chemical, CAS#67-68-5) or aqueous M-Pyrol (ISP, CAS#872-50-) solutions; and 3) 1.027 g Yeast#1 or Yeast#2 commercial active dry yeasts in 18 ml sterile water.
Samples (22 ml) were taken at 0, 6, 12, 24, 36, and 48 h and placed on ice to prevent growth. An 11 ml aliquot of each sample was serially diluted in 0.1% w/v sterile peptone water, and microbiologically plated onto MRS agar plates in duplicate. All plates were incubated for 48 h at 30° C. in an anaerobic CO2 incubation chamber, and manually enumerated for viable Lactobacilli. […] Lactic acid, glycerol, ethanol, acetic acid, and glucose concentrations were determined by HPLC analysis. […] The components were detected by a differential refractometer (Model 4210, Waters Chromatographic Division, Milford, Mass.) and the subsequent data processed by the supplied Waters Millenium32 software. […]

Yeast #1 = assay: Solvent compatibility with yeast corn mash fermentation, Yeast #1; settings: Yeast #1, corn mash
Description: as §1, §2
Samples (22 ml) were taken at 0, 6, 12, 24, 36, and 48 h and placed on ice to prevent growth. An 11 ml aliquot of each sample was serially diluted in 0.1% w/v sterile peptone water, and microbiologically plated onto MRS agar plates in duplicate. All plates were incubated for 48 h at 30° C. in an anaerobic CO2 incubation chamber, and manually enumerated for viable Lactobacilli. The remaining 11 ml aliquot of each sample was centrifuged (10K RPM, 4° C., 20 minutes) in a Sorvall RC-5C centrifuge. The liquid supernatant was then passed through a 0.2 μm membrane filter to remove any particulates and frozen for future analysis. Lactic acid, glycerol, ethanol, acetic acid, and glucose concentrations were determined by HPLC analysis. The samples were thawed and diluted to the required extent with Milli-Q water. Aliquots of the diluted samples (100 μl) were each mixed with an equal volume of 2% w/v boric acid (internal standard), and injected into a Biorad HPX-87H Aminex™ column equilibrated at 40° C. The eluent was 5 mM sulfuric acid flowing at a rate of 0.7 ml/min. The components were detected by a differential refractometer (Model 4210, Waters Chromatographic Division, Milford, Mass.) and the subsequent data processed by the supplied Waters Millenium32 software. All fermentations were performed in duplicate.

humans = settings: cited from earlier work

Ethanol production (inhibition) (Yeast #1; 0 to 1200 ppm solvent): did not inhibit ethanol production
Structure (SMILES): C[S+](C)[O-] [DMSO, Dimethylsulfoxide]
Yeast performance (viability, glycerol, ethanol) (Yeast #2; Yeast #2, corn mash, 0 to 1200 ppm solvent): no adverse effect on yeast performance
Yeast viability and stress (glycerol) (Yeast #1; 1000 ppm solvent, 48 hours of exposure): does not appear to affect the viability of Yeast #1 or stress Yeast #1

Ethanol production (Yeast #2; Yeast #2, corn mash, 1000 ppm solvent, 48 hours (control 10%)): 9.1%
Ethanol production (Yeast #1; 1000 ppm solvent (control 8.1%)): 7.8%
Structure (SMILES): CN1CCCC1=O [NMP, N-Methyl-2-Pyrrolidone]
Ethanol concentration trend (Yeast #2; Yeast #2, solvent concentrations >400 ppm): consistent trend towards lower concentrations of ethanol
Yeast viability (Yeast #1; solvent concentrations above 400 ppm): slight decline in yeast viability

Structure (SMILES): CCCCOC(=O)C(C)O (stereo not drawn) [n-butyl lactate]
Toxic concentration in air (humans; humans, in air): about 4 ppm
Toxicity classification (humans; intraperitoneal route): classified as a poison by intraperitoneal route
